Source: patent publication US20050208496A1, “Methods of testing for bronchial asthma or chronic obstructive pulmonary disease” (Genox Research, Inc., priority 2002, published 2005)

Test system: respiratory epithelial cells

## IL-13: human IL-13 (Peprotech, Inc.) added to the medium at 50 ng/mL to stimulate respiratory epithelial cells
Lot 1, Day 3, IMM method
  CH25H (32363_at) expression, fold change upon IL-13 stimulation: 8.9 fold
  CTSC (133_at) expression, fold change upon IL-13 stimulation: 4.7 fold
  CXCL16 (44095_at) expression fold change: 2.5 fold
  DD96 (31610_at) expression, fold change upon IL-13 stimulation: 11.4 fold
  DDIT3 (39420_at) expression, fold change upon IL-13 stimulation: 2.3 fold
  DKFZP564O0823 (41402_at) expression, fold change upon IL-13 stimulation: 6.7 fold
  DKFZP566J091 (57197_at) expression fold change: 8.2 fold
  DPYD (38220_at) expression fold change upon IL-13 stimulation: 7.5 fold
  EMILIN-2 (51628_at) expression fold change: 2.8 fold
  FABP4 (38430_at) expression, fold change upon IL-13 stimulation: 2.6 fold
  FETUB (32620_at) expression fold change: 4.1 fold
  FLJ10261 (43366_at) expression fold change: 8.2 fold
  FLJ10261 (43963_at) expression fold change: 6.6 fold
  FLJ22693 (53777_at) expression fold change: 2.1 fold
  FUT10 (908_at) expression fold change upon IL-13 stimulation: 4 fold
  G1P3 (1358_s_at) expression, fold change upon IL-13 stimulation: 7.1 fold
  GBP5 (52615_at) expression fold change: 2.5 fold
  HDAC9 (37483_at) expression fold change upon IL-13 stimulation: 3.1 fold
  HLA-F (37420_i_at) expression, fold change upon IL-13 stimulation: 3 fold
  HLA-F (49203_f_at) expression fold change: 3.1 fold
  HS3ST1 (41556_s_at) expression fold change upon IL-13 stimulation: 2.2 fold
  IFI27 (425_at) expression, fold change upon IL-13 stimulation: 4.5 fold
  IFI27 (48864_at) expression fold change: 4 fold
  IFI35 (464_s_at) expression, fold change upon IL-13 stimulation: 9.6 fold
  IFI44 (37641_at) expression, fold change upon IL-13 stimulation: 8 fold
  IFIT1 (915_at) expression, fold change upon IL-13 stimulation: 9.9 fold
  IFIT1 (32814_at) expression, fold change upon IL-13 stimulation: 7.6 fold
  IFIT4 (38584_at) expression, fold change upon IL-13 stimulation: 10.4 fold
  IFITM1 (675_at) expression, fold change upon IL-13 stimulation: 19.9 fold
  IL13RA2 (1016_s_at) expression fold change upon IL-13 stimulation: 5.1 fold
  IL19 (47855_at) expression fold change: 9.1 fold
  ILIRL1 (40322_at) expression, fold change upon IL-13 stimulation: 2.6 fold
  IRF7 (36412_s_at) expression fold change: 2.5 fold
  ISG15 (1107_s_at) expression, fold change upon IL-13 stimulation: 8.2 fold
  ISG15 (38432_at) expression, fold change upon IL-13 stimulation: 27.9 fold
  ISG20 (33304_at) expression, fold change upon IL-13 stimulation: 2.4 fold
  KIAA0537 (33787_at) expression, fold change upon IL-13 stimulation: 5.8 fold
  KIAA1268 (57050_at) expression fold change: 2.8 fold
  KRT16 (601_s_at) expression fold change: 4.6 fold
  LAMP3 (37168_at) expression, fold change upon IL-13 stimulation: 3.6 fold
  LOC57118 (51085_at) expression fold change: 3 fold
  LOC64116 (40456_at) expression, fold change upon IL-13 stimulation: 2.9 fold
  MDA5 (51920_at) expression fold change: 5.2 fold
  MMP7 (668_s_at) expression, fold change upon IL-13 stimulation: 2.2 fold
  MX2 (879_at) expression fold change: 8 fold
  MXI (37014_at) expression fold change: 10.6 fold
  NK4 (39119_s_at) expression fold change upon IL-13 stimulation: 2 fold
  NOS2A (1948_f_at) expression fold change upon IL-13 stimulation: 4.3 fold
  OAF (39695_at) expression, fold change upon IL-13 stimulation: 3.8 fold
  OAS1 (38388_at) expression fold change upon IL-13 stimulation: 5.5 fold
  OAS1 (38389_at) expression fold change upon IL-13 stimulation: 5.3 fold
  OAS2 (39263_at) expression fold change upon IL-13 stimulation: 2.9 fold
  OSF-2 (1451_s_at) expression fold change upon IL-13 stimulation: 8.8 fold
  PAK2 (1560_g_at) expression, fold change upon IL-13 stimulation: −2.1 fold
  PLS1 (39951_at) expression fold change: 2.9 fold
  PLSCR1 (32775_r_at) expression fold change upon IL-13 stimulation: 2.6 fold
  PMCH (32005_at) expression fold change: 3.3 fold
  PSMB9 (38287_at) expression fold change upon IL-13 stimulation: 2.3 fold
  RASGRP1 (33291_at) expression fold change: 2.6 fold
  RIG-1 (59215_at) expression fold change: 8.7 fold
  SCYB10 (431_at) expression fold change upon IL-13 stimulation: 3.9 fold
  SCYB11 (35061_at) expression fold change upon IL-13 stimulation: 7.9 fold
  SECTM1 (41045_at) expression, fold change upon IL-13 stimulation: 5.2 fold
  SERPINB4 (1549_s_at) expression fold change: 67.4 fold
  SERPINB6 (34789_at) expression fold change: 2.6 fold
  SIAT1 (41352_at) expression fold change upon IL-13 stimulation: 13.1 fold
  SLC26A4, pendrin (36376_at) expression fold change: 25.6 fold
  SSI-1 (41592_at) expression, fold change upon IL-13 stimulation: 5.8 fold
  STAT1 (32860_g_at) expression fold change: 2.4 fold
  STAT1 (33338_at) expression fold change: 5.7 fold
  TGFB2 (1262_s_at) expression fold change upon IL-13 stimulation: 2 fold
  TGM2 (38404_at) expression fold change upon IL-13 stimulation: 5 fold
  TSPAN-3 (38612_at) expression, fold change upon IL-13 stimulation: 2.5 fold
  UBE2L6 (40505_at) expression fold change upon IL-13 stimulation: 4.2 fold
  UFD1L (811_at) expression, fold change upon IL-13 stimulation: 2.3 fold
  WARS (38121_at) expression fold change upon IL-13 stimulation: 2.9 fold
  diubiquitin (39959_at) expression, fold change upon IL-13 stimulation: 14.4 fold
Lot 1, Day 7, AI
  AA045020 (44676_at) expression change: −2.9
  AA053401 (56234_r_at) expression change: −3.5
  AA059445 46293_at expression change: −3.7
  AA059458 (65626_at) expression change: −3.4
  AA079839 (69289_at) expression change: −2.2
  AA151265 (60939_i_at) expression change: −2.6
  AA151265 (60940_r_at) expression change: −5.9
  AA160156 (47578_at) expression change: −4.2
  AA203423 (65699_at) expression change: −2.6
  AA369887 (87539_i_at) expression change: −3.6
  AA398155 (48999_at) expression change: −2
  AA400080 (57282_at) expression change: −4.2
  AA422178 (53747_at) expression change: −2.8
  AA428312 (83988_at) expression change: −2
  AA442232 (59109_at) expression change: −2.3
  AA456099 (59567_at) expression change: −2.2
  AA772055 46104_at expression change: −3
  AA779895 59136_at expression change: −2.4
  ABCC5 1932_at expression change: −3.6
  AF052107 38262_at expression change: −4.1
  AI050855 (64285_at) expression change: −3.6
  AI432375 (49819_at) expression change: −4.5
  AI669212 55436_at expression change: −2.5
  AI740855 (83076_at) expression change: −2
  AI761647 40191_s_at expression change: −3
  AI770116 (70124_at) expression change: −2.3
  AI798733 (64163_at) expression change: −3.6
  AI829641 (84270_at) expression change: −3.3
  AI923984 33546_at expression change: −4.6
